Experimental data: patent publication US8735650B2, “Methods of modulating production of phenylpropanoid compounds in plants” (Yissum Research Development Company of the Hebrew …, priority 2007, dated 2014)

Columns and labels:
[1] = system: Pap1-transgenic petunia flowers; experiment: Phe feeding, volatile emission by dynamic headspace GC-MS; format: in vivo, Petunia hybrida
Description: (§1) Volatiles emitted from detached petunia flowers were collected using an adsorbent trap consisting of a glass tube containing 200 mg of polymer Porapak Type Q (80/100 mesh; Alltech, Deerfield, Ill.) held in place with plugs of silanized glass wool (Guterman et al., 2006). Trapped volatiles were eluted using 3 ml hexane, and 2 μg iso-butylbenzene was added per sample as an internal standard for each. To determine pool sizes of volatile compounds, limbs were ground in liquid nitrogen and extracted in hexane (4 ml g^−1 of tissue) containing 0.5 μg ml^−1 iso-butylbenzene as the internal standard. Following overnight incubation with shaking at 150 rpm, extract was centrifuged at 10,500 g for 10 min and the supernatant filtered through a 25-ml syringe with a […] sterile nylon filter. To assess whether the bound form of benzaldehyde accumulated in petunia limbs, tissue (0.6 g) was incubated with 9 ml phosphate citrate buffer pH 4.5 with or without 15 units of glucosidase mixture Novarom G (Novo Nordisk Ferment Ltd., Bagsvaerd, Denmark) at 37° C. overnight, and then transferred to −20° C. to stop enzymatic reactions. Hexane (10 ml) containing 0.5 μg ml^−1 iso-butylbenzene as an internal standard was added to each sample, and following vortexing, the upper phase was recovered.
(§2) GC-MS analysis was performed using a device composed of a Pa1 auto-sampler (CTC Analytic, Zwingen, Switzerland), a TRACE GC 2000 equipped with an Rtx-5SIL MS (Restek, i.d. 0.25 μm, 30 m×0.25 mm) fused-silica capillary column, and a TRACE DSQ quadrupole mass spectrometer (ThermoFinnigan, Hemel, UK). Helium was used as the carrier gas at a flow rate of 0.9 ml min^−1. The injection temperature was set to 250° C. (splitless mode), the interface to 280° C., and the ion source adjusted to 200° C. The analysis was performed under the following temperature program: 5 min of isothermal heating at 50° C., followed by a 5° C. min^−1 oven temperature ramp to […], and a final increase from 250 to 280° C. at 10° C. min^−1. The transfer line temperature was 280° C. The system was equilibrated for 1 min at 70° C. before injection of the next sample. Mass spectra were recorded at 2 scan s^−1 with a scanning range of 40 to 450 mass-to-charge ratio, and an electron energy of 70 eV. Compounds were tentatively identified (>95% match) based on NIST/EPA/NIH Mass Spectral Library (Data Version: NIST 05, Software Version 2.0d) using the XCALIBUR v1.3 program (ThermoFinnigan) library. Further identification of compounds was based on comparison of mass spectra and retention times with those of authentic standards (Sigma, Milwaukee, Wis.) analyzed under similar conditions.
(§3) For evaluating the affect of Phe feeding on volatile production, control and Pap1-transgenic flowers were collected at 0800 hour and 1600 hour, placed in a glass vial containing 10 ml of water with or without 5 mg L-phenylalanine (Duchefa, Haarlem, Netherlands) and headspace was collected during the day (0800-1600 hours) and night (1600-0800 hours). To assess internal pools of volatiles, control and Pap1-transgenic flowers collected at 1600 hour were placed in a glass vial containing 10 ml of water with or without L-phenylalanine and at 2300 hour volatile were extracted as above.

control petunia flowers = experiment: as above; format: in vivo, Petunia hybrida; details: during the night
Description: as §1, §2, §3

[2] = Phe fed vs non-fed Pap1-transgenic flowers, during the day

## N[C@@H](Cc1ccccc1)C(=O)O [Phe, L-phenylalanine]
[1]; Pap1-transgenic flowers, Phe feeding during the night
  volatile accumulation and emission: unaffected
[1]; [2]
  increase in benzaldehyde emission: about 7 fold
  increase in methylbenzoate emission: ~5 fold
Control petunia flowers
  reduction in benzaldehyde emission: 2-3 fold
  reduction in methylbenzoate emission: 2-3 fold
